One data set has as its system herpes simplex-1. Put plainly: Antiviral index in PRK cell cultures: antimetabolic ID50 divided by antiviral ID50 (Test 4). The class given is cell-based, herpes simplex-1 virus. The settings on record: for Antiviral index: PRK cells, ID50 cell number / ID50 CPE of herpes simplex-1; for antiviral index (in words): against herpes simplex virus. On the procedure:
Finally, the antiviral index of 5-(2-bromovinyl)-2'-deoxyuridine and its related compounds in PRK cell cultures was determined as a result of the measurements made in the foregoing tests.
The antiviral index was calculated by dividing the "antimetabolic" ID50 by the "antiviral" ID50. The "antimetabolic" ID50 corresponded to the dose required to reduce the cell number by 50% whereas the "antiviral" ID50 corresponded to the dose required to inhibit the cytopathic effect of herpes simplex-1 by 50%.

Data set [1] concerns cell culture. As to the kind of experiment: Toxicity in cell culture (summary statement).
Data set [2] is described as follows: Antimetabolic activity: inhibition of (methyl-^3 H)TdR incorporation into DNA of PRK cells (Test 3a). The class given is cell-based. The settings on record: rabbit. On the procedure: (§1) (a) In a first experiment, the incorporation of certain radiolabelled DNA precursors into DNA of the cells, and the effect of 5-(2-bromovinyl)-2'-deoxyuridine and related compounds thereon, was tested. The technique has been described by De Clercq et al in Biochemical Pharmacology, 26, 794-797 (1977) and by De Clercq et al in Molecular Pharmacology, in press, 1978, which are incorporated herein by way of reference.
(§2) The DNA precursors as used were (methyl-^3 H) (2'-deoxythymidine) (TdR), and (2-^14 C) (2'-deoxyuridine) (UdR).
(§3) Incorporation of the radiolabelled precursor was then measured as described and the ID50 was determined.

The nature of data set [3]: Antimetabolic activity: inhibition of (2-^14 C)UdR incorporation into DNA of PRK cells (Test 3a). The class given is cell-based. The settings on record: rabbit. On the procedure: as §1, §2, §3
The test system of a further data set is vaccinia virus. As to the kind of experiment: microbe, parasite or virus in culture. Type of data set: cell-based. The following applies: Orthopoxvirus vaccinia, 72 h.
For data set [4], the system named is herpes simplex-1 (strain KOS) virus. As to the kind of experiment: microbe, parasite or virus in culture. The settings on record: for IC50: 72 h, 100 CCID50, CPE, generally 3 days, average of three experiments; for selectivity of antiviral activity (in words): herpes simplex virus. Type of data set: cell-based, herpes simplex-1 virus (strain KOS).
The nature of data set [5]: Antimetabolic activity: reduction of total cell number of PRK cells (Test 3b). The following applies: rabbit.
For data set [6] the following is noted: state of the art; cited from earlier work.
For data set [7], the system named is DNA viruses such as vaccinia and herpes simplex. The following applies: state of the art; cited from earlier work.
A further data set can be described thus: in vitro. The following applies: rabbit, prk cells.
Data set [8] concerns cell culture.
[9] abbreviates: PRK cells, 16 hours, read-out: ID50 (methyl-^3 H)TdR incorporation into DNA.
Where [10] appears, read: PRK cells, 16 hours, read-out: ID50 (2-^14)UdR incorpor. into DNA.
[11] abbreviates: HSF, read-out: ID50 Vaccinia (HSF).
Where [12] appears, read: PRK, in Oryctolagus cuniculus, read-out: ID50 Vaccinia (PRK).
The mark [13] stands for this setting: human skin fibroblast (HSF) cells, read-out: ID50 Herpes simplex-1 strain KOS (HSF).
Where [14] appears, read: primary rabbit kidney (PRK) cells, read-out: ID50 Herpes simplex-1 strain KOS (PRK).

Converted amounts (≈) assume the structure as drawn. “Also recorded” adds a separate entry of the source. Read-outs that look alike come from different tables or passages of the source.

On to `O=c1[nH]c(=O)n([C@H]2C[C@H](O)[C@@H](CO)O2)cc1/C=C/Br` [E-5-(2-bromovinyl)-2'-deoxyuridine], for which, in the data set with herpes simplex-1, the Antiviral index is listed as > 5000. The “antiviral index (in words)” value in the data set with herpes simplex-1 is “remarkably high antiviral index”. Further, the “toxicity (in words)” value in the data set with cell culture [1] is reported as “remarkably low”. Also, the IC50 at 16 h in [2] (setting [9]) was determined as 70 µg/mL (≈ 210 µM); in [3] (setting [10]) it was 35 µg/mL (≈ 105 µM). Further, the IC50 with vaccinia virus (setting [11]) was 0.7 µg/mL (≈ 2.1 µM); in the data set on vaccinia virus (setting [12]), 7 µg/mL (≈ 21 µM); in data set [4] (setting [13]) it was 0.007 µg/mL (≈ 0.021 µM); in [4] (setting [14]), 0.007 µg/mL (≈ 0.021 µM). The “selectivity of antiviral activity (in words)” value in data set [4] is recorded as “specific antiviral activity; also recorded: very selective towards herpes simplex virus”. Further, the CC50 at 72 h in [5] was > 33 µg/mL.

In the data set on herpes simplex-1, `O=c1[nH]c(=O)n([C@H]2C[C@H](O)[C@@H](CO)O2)cc1I` [2'-deoxy-5-iodouridine] showed an Antiviral index of 30. Also, the IC50 at 16 h in [2] (prk cells) stood at 2.5 µg/mL (≈ 7.06 µM); in data set [3] (prk cells) it was 1.2 µg/mL (≈ 3.39 µM). Besides, the “toxicity of known compounds (in words)” value in data set [6] is “cannot be neglected”. Also, the IC50 is 0.2 µg/mL (≈ 0.565 µM) with vaccinia virus (setting [11]), 0.2 µg/mL (≈ 0.565 µM) in the data set with vaccinia virus (setting [12]), 0.7 µg/mL (≈ 1.98 µM) in data set [4] (setting [13]) and 0.2 µg/mL (≈ 0.565 µM) in data set [4] (setting [14]). In [7], the “antiviral activity/specificity of known compounds (in words)” value is “act equally well against different DNA viruses such as vaccinia and herpes simplex”. Moreover, the CC50 at 72 h in “in vitro” amounted to 6 µg/mL (≈ 16.9 µM).

As to `C#Cc1cn([C@H]2C[C@H](O)[C@@H](CO)O2)c(=O)[nH]c1=O` [2'-deoxy-5-ethynyluridine], in the data set with herpes simplex-1, the Antiviral index was determined as 5. Moreover, the results for the IC50 at 16 h in data set [2] (setting [9]) and in data set [3] (setting [10]) were 100 µg/mL (≈ 396 µM) and < 6 µg/mL, respectively. Further, the IC50 turned out to be 0.1 µg/mL (≈ 0.396 µM) in the data set on vaccinia virus (setting [11]), 0.2 µg/mL (≈ 0.793 µM) in the data set with vaccinia virus (setting [12]), 0.4 µg/mL (≈ 1.59 µM) in data set [4] (setting [13]) and 0.07 µg/mL (≈ 0.278 µM) in data set [4] (setting [14]). Also, in [5], it took 0.3 µg/mL (≈ 1.19 µM) to reach half-maximal cytotoxicity (CC50 at 72 h).

With `O=c1[nH]c(=O)n([C@H]2C[C@H](O)[C@@H](CO)O2)cc1/C=C/I` [E-5-(2-iodovinyl)-2'-deoxyuridine], in the data set on herpes simplex-1, the “antiviral index (in words)” value is “high antiviral index”. Besides, the IC50 in the data set on vaccinia virus (setting [12]) is 10 µg/mL (≈ 26.3 µM); in [4] (setting [14]) it was 0.01 µg/mL (≈ 0.0263 µM). Also, the “toxicity (in words)” value in the data set on cell culture [8] was “remarkably low”. The “selectivity of antiviral activity (in words)” value in data set [4] is listed as “specific antiviral activity; also recorded: very selective towards herpes simplex virus”.

With `C=C(Cl)c1cn([C@H]2C[C@H](O)[C@@H](CO)O2)c(=O)[nH]c1=O` [5-(1-chlorovinyl)-2'-deoxyuridine], the Antiviral index in the data set on herpes simplex-1 worked out at 5. Moreover, the IC50 at 16 h was 27 µg/mL (≈ 93.5 µM) in [2] (prk cells) and < 6 µg/mL in data set [3] (prk cells). The IC50 in the data set on vaccinia virus (setting [11]) is 0.7 µg/mL (≈ 2.42 µM); with vaccinia virus (setting [12]), 0.4 µg/mL (≈ 1.39 µM); in data set [4] (setting [13]), 2 µg/mL (≈ 6.93 µM); in data set [4] (setting [14]), 0.4 µg/mL (≈ 1.39 µM). In addition, half-maximal cytotoxicity in the data set “in vitro” (CC50 at 72 h) was put at 2 µg/mL (≈ 6.93 µM).

In turn, `C=Cc1cn([C@H]2C[C@H](O)[C@@H](CO)O2)c(=O)[nH]c1=O` [2'-deoxy-5-vinyluridine] displayed an Antiviral index in the data set on herpes simplex-1 of 200. Further, the figures for the IC50 at 16 h in [2] (prk cells) and in data set [3] (prk cells) were 20 µg/mL (≈ 78.7 µM) and 8 µg/mL (≈ 31.5 µM), respectively. Also, the “toxicity of known compounds (in words)” value in [6] was “cannot be neglected”. The IC50 stood at 0.1 µg/mL (≈ 0.393 µM) with vaccinia virus (setting [11]), 0.4 µg/mL (≈ 1.57 µM) in the data set with vaccinia virus (setting [12]), 0.07 µg/mL (≈ 0.275 µM) in data set [4] (setting [13]) and 0.04 µg/mL (≈ 0.157 µM) in [4] (setting [14]). Moreover, the “antiviral activity/specificity of known compounds (in words)” value in [7] is “act equally well against different DNA viruses such as vaccinia and herpes simplex”. Moreover, in “in vitro”, half-maximal cytotoxicity (CC50 at 72 h) was put at 8 µg/mL (≈ 31.5 µM).

These data come from patent US4424211A, “2'Deoxy-5-(2-halogenovinyl)-uridines, pharmaceutical compositions and method of use” (Rega Instituut VZW, priority 1981, dated 1984).
